Assay results taken from PMC8665362, “Identification of small-molecule allosteric modulators that act as enhancers/disrupters of rhodopsin oligomerization” (The Journal of Biological Chemistry, 2021).
Marks after values point to notes of the source that are not given here.

Tests used:
[1] = molecular target: T1, bovine rhodopsin (Bos taurus, UniProt P02699); assay: rhodopsin Meta II decay assay (Trp265 intrinsic fluorescence); settings: 100 μM compound
T1 construct: The washed ROS with isotonic and hypotonic buffers was used as described above; from tissue; host or cells: bovine rod outer segments (ROS)
Protocol: However, oligomerization of isorhodopsin could affect the chromophore release from opsin. The chromophore release can be measured sensitively by the light-induced increase in intrinsic fluorescence of the Trp^265 residue that occurs upon release of the chromophore after illumination ([43]).
The washed ROS with isotonic and hypotonic buffers was used as described above. The solubilized rhodopsin at 1.05 mg/ml in 20 mM 1,3-bis(tris(hydroxymethyl)methylamino) propane, pH 6.9, 100 mM NaCl, and 1 mM LMNG buffer was incubated for 5 min at 20 °C with 0.7 μl of 100 mM stock solutions of the nine identified hit compounds (100 μM final concentration) in DMSO and centrifuged at 1000g for an additional 5 min. Next, photobleaching was carried out with a 150-W fiber light delivered through a 480 to 520 nm band pass filter (Chroma Technology) for 10 s. Samples were subjected to fluorescence measurements acquired through 150 s in triplicate. The results were analyzed with an L55 luminescence spectrophotometer (PerkinElmer) operating at excitation and emission wavelengths of 300 nm and 335 nm, respectively.

[2] = system: rod photoreceptors of isolated mouse retinas; assay: ex vivo ERG of isolated mouse retinas (rod light responses); assay type: cell-based, mouse (C57BL/6J); settings: 250 μM compound
From the text: We determined the impact of compound #7 (representative disrupter of rhodopsin dimerization) and compound #1 (representative enhancer) on the sensitivity and kinetics of rod light responses, using ex vivo electroretinogram (ERG) analysis of isolated mouse retinas (Experimental procedures). This technique allows robust recordings from intact retinas and is well suited for quantitative investigation of mouse phototransduction ([48], [49], [50], [51], [52], [53]).
Ex vivo ERG recordings were conducted with isolated retinas of C57Bl/6J mice, as described ([41], [62], [63]). Mice were dark-adapted overnight and euthanized by CO2 asphyxiation, and whole retinas were dissected under dim red light. Before recordings, retinas were incubated for 5 h in Ames’ medium (Sigma-Aldrich) inside a light-tight box that was supplied with humidified 95% O2/5% CO2. For control retinas, 0.1% DMSO was added to the incubation medium, and for others, the incubation medium contained either 250 μM F2502-0030 (compound #1) or F5897-0190 (compound #7). These compounds were first dissolved in DMSO at 250 mM concentration, and 0.1% of this stock solution was added to the incubation medium (Ames’ medium). Stock solution was stored at −20 °C and used within a week. After incubation, retinas were placed on the ex vivo ERG specimen holder and perfused with Ames’ medium (saturated with 95% O2/5% CO2) at 1.5 ml/min at 35 °C. Ames’ medium was supplemented with 100 μM BaCl2 and 40 μM DL-AP4 (Tocris Bioscience) to isolate the photoreceptor component of the ERG signal. Responses were recorded to 5 ms flashes of light (630 nm) ranging from 276 to 308,534 photons μm^−2, corresponding to 1 to 1100 photons μm^−2 at 500 nm ([64]). Sensitivity of rod photoreceptors was determined in three ways: (1) sF = peak amplitude of dim flash response divided by flash energy (1 photon μm^−2); (2) SF = sF/Rmax, where Rmax is the maximal response amplitude measured at the plateau from a saturated rod response; (3) I1/2: flash energy required to elicit 50% of the Rmax determined by fitting a Naka-Rushton function to flash energy-amplitude data.

[3] = molecular target: rhodopsin (isorhodopsin) dimerization (Homo sapiens, UniProt P08100); assay: rhodopsin dimerization BRET assay in HEK293 opsin-Rluc/opsin-Venus cells; assay type: cell-based; set-up: expressed in transfected cells; host or cells: HEK293 (human embryonic kidney 293) opsin-Rluc / opsin-Venus cell lines; settings: HEK293 opsin-Rluc/opsin-Venus cells regenerated with 9-cis-retinal; triplicates; read from Fig. 3B,E
From the text: To identify small molecules that target rhodopsin dimerization, a cell-based high-throughput screening (HTS) assay was used to screen a diverse library of 50,000 compounds from Life Chemicals. The human osteosarcoma (U2OS) stable cell line was used, which expresses opsin fused with complimentary subunits of β-galactosidase (β-gal), namely, the enzyme acceptor large β-gal subunit (EA) and the enzyme donor, small subunit of β-gal (PK). Upon rhodopsin self-association in vitro, a competent β-gal was formed and chemiluminescent signal was generated in the presence of β-gal substrate (Fig. 1A). For further validation, the β-gal activity assay was used to counter-screen and rule out false positives, affecting the activity of β-gal without affecting rhodopsin (Fig. 1B) ([34]). In an orthogonal assay, rhodopsin dimerization was assessed using a bioluminescence resonance energy transfer (BRET) assay with human embryonic kidney 293 cells expressing opsin fused with Renilla luciferase and opsin fused with Venus (Fig. 1C) ([35], [36]). To form functional visual pigment, opsin-fused proteins were regenerated with 9-cis-retinal to form so-called isorhodopsin ([37]). We chose 9-cis-retinal over photoreceptor-endogenous 11-cis-retinal because of its availability and the prohibitive cost for HTS assays with the native chromophore. Rhodopsin and isorhodopsin have similar biochemical and spectral properties (see ([38])).
Identified hits from the β-gal complementation assay were subjected to the previously developed BRET assay, using human embryonic kidney 293 opsin–Renilla luciferase and opsin-Venus cell lines ([37]). Cultured cells were diluted to 2 × 10^5 cells/ml in the medium containing 10% fetal bovine serum (Thermo Fisher Scientific) and 1% penicillin-streptomycin (10,000 U/ml; Thermo Fisher Scientific), and 20 μl/well of the cell diluent was dispensed into a white ViewPlate-384 (PerkinElmer). Cells were cultured overnight at 37 °C in 5% CO2, and under a dim red light, cells were treated with 9-cis-retinal at 7.5 μM final concentration. The next day, cells were treated with the identified hit compounds from the β-gal complementation assay at 180 μM down to 2.4 nM concentrations, and 1 μM final concentration of TM5 peptide ([…]-NH2; EZBiolab) serving as the control. On the following day, the culture medium was aspirated and replaced with 90 μl/well of PBS containing pivaloyloxymethyl acetoxycoelenterazine h (Dalton Research Molecules) at 600 μM concentration followed by incubation at 20 °C for 40 min ([35]). Dual luminescence readings at 480 and 530 nm were performed using a SpectraMax L plate reader with the BRET1 filter set (Molecular Devices).

T1 sequence (P02699 whole entry): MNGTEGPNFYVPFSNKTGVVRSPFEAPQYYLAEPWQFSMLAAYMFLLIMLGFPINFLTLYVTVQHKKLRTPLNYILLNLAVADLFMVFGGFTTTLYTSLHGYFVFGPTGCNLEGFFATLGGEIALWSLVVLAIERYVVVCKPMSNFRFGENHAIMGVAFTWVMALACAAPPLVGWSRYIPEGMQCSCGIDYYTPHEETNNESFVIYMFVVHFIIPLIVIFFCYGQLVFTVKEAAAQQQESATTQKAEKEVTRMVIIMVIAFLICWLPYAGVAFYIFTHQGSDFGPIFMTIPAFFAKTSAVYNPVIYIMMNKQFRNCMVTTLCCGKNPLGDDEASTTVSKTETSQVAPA
Chain of rhodopsin (isorhodopsin) dimerization (P08100 whole entry, the tested form may be a part): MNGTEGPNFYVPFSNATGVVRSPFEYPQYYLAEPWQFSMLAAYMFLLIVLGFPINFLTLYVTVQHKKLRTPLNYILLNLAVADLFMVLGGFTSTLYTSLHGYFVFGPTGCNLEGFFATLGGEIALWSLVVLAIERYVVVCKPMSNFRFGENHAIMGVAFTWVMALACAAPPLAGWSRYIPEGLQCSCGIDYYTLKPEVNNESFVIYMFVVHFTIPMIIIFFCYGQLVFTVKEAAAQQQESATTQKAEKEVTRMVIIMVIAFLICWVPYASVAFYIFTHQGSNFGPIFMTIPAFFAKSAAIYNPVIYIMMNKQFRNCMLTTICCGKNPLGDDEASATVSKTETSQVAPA

O=C(CSc1nnc(NC(=O)Cc2ccc(F)cc2)s1)NO [#1]
light-induced increase in Trp265 intrinsic fluorescence vs DMSO-treated isorhodopsin [1]: significantly quenched | Meta II decay rate (slope of intrinsic fluorescence over 150 s) relative to DMSO control ([1]; bleached rhodopsin, p < 0.0001): statistically significant signal reduction | effect on kinetics of rod light responses [2]: did not substantially affect the kinetics of responses | Rmax ([2]; 5 h incubation, N = 4 retinas): 320 ± 80 ^a μV | half-saturating I1/2 from best-fitting Michaelis–Menten equation to mean normalized amplitudes ([2]; Fig. 5F): 37 photons μm^−2 | SF (fractional sensitivity, sF/rmax) ([2]; N = 4): 5.0 ± 0.3 ^a %/photons∙μm^−2 | sF (absolute sensitivity) ([2]; N = 4): 13 ± 5 ^a μV/photons∙μm^−2 | I1/2 ([2]; from individual retinas, N = 4): 37 ± 2 ^a photons∙μm^−2 | tp ([2]; time-to-peak of dim flash (1 photon μm^−2), N = 4): 163 ± 12 ms | EC50 [3]: 2.34 µM
